Data from patent US20110183978A1, “Phenylpyri(mi)dinylazoles” (Bayer CropScience AG, priority 2009, published 2011).
Read-outs that look alike come from different tables or passages of the source.

How the values were obtained:
[1] = system: Alternaria solani; experiment: Example M: in vivo test on Alternaria solani (leaf blotch disease/tomato/protective); settings: 168 h, tomato, protective, 500 ppm active substance, assessed 7 days after inoculation, read-out: % Wirkungsgrad (activity level)
Method in brief: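 Alternaria solani infection on tomato scored 7 days post-inoculation. Before inoculation, young plants received a protective spray at the stated application dose; formulation was compound mixed with N,N-dimethylformamide and emulsifier, water-diluted.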

[2] = system: Fusarium graminearum; experiment: microbe, parasite or virus in culture; assay type: cell-based
[3] = system: Fusarium proliferatum; experiment: Example I: production of fumonisin FB1 by Fusarium proliferatum (microtitre plates); assay type: cell-based; settings: 120 h
[4] = physchem
[5] = system: Sphaerotheca fuliginea; experiment: Example L: in vivo test on Sphaerotheca fuliginea (powdery mildew on cucumber/protective); settings: Podosphaera fuliginea, 168 h, cucumber, protective, assessment 7 days after inoculation, read-out: % Wirkungsgrad
Description: Solvent: 49 parts by weight N,N-dimethylformamide Emulsifier: 1 part by weight alkylaryl polyglycol ethers For the preparation of a suitable active substance preparation, 1 part by weight of active substance is mixed with the stated quantities of solvent and emulsifier and the concentrate is diluted to the desired concentration with water. For the testing for protective activity, young cucumber plants are sprayed with the active substance preparation at the stated application dosage. One day after the treatment, the plants are inoculated with a spore suspension of Sphaerotheca fuliginea. Next, the plants are placed in a greenhouse at 70% relative atmospheric humidity and a temperature of 23° C. 7 days after the inoculation, the assessment takes place.

[6] = 72 h, read-out: % Inhibition des Pilzwachstums bei 50 μM
[7] = 168 h, read-out: % Inhibition der DON/AcDON produktion bei 50 μM
[8] = Fusarium proliferatum growth, OD 620, 5 days, read-out: % Inhibition des Pilzwachstums bei 50 μM
[9] = Fusarium proliferatum, 5 days at 20° C., HPLC-MS/MS, read-out: % Inhibition der FB1 produktion bei 50 μM
[10] = LogPA (logP of the stated pure compound or, in a mixture, of the main isomer, 1-substituted 3-aryl-1H-pyrazole)

| SMILES | pest or weed control at 500 ppm [1] [%] | inhibition at 50 µM [2, 6] [%] | inhibition at 50 µM [2, 7] [%] | inhibition at 50 µM [3, 8] [%] | inhibition at 50 µM [3, 9] [%] | chromatographic logP ([4]; LogPA) | chromatographic logP [4, 10] | pest or weed control at 500 ppm [5] [%] |
| --- | --- | --- | --- | --- | --- | --- | --- | --- |
| CCC(=O)Nc1cc(-c2c(-c3ccc(Cl)cc3F)nn(C)c2SC)ccn1 [Compound 195] | 80 | 0 | 80 | 17 | 100 | 2.7 | – | – |
| Fc1ccc(-c2nn(C3CCCCO3)cc2-c2ccnc3[nH]ccc23)cc1 (stereo not drawn) [Compound 20] | – | 21 | 87 | 65 | 100 | – | 2.08 | – |
| CCOCCn1cc(-c2ccnc(NC(=O)C(C)C)c2)c(-c2ccc(F)cc2)n1 [Compound 328] | 95 | 101 | 100 | – | – | 2.32 | – | 100 |
| CC(C)Cn1cc(-c2ccnc(NC(=O)C3CC3)c2)c(-c2ccc(F)cc2)n1 [Compound 165] | 95 | 64 | 100 | 90 | 100 | – | 2.6 | 86 |
| Cc1nccc(-c2cn(C3CCCCO3)nc2-c2ccc(F)cc2)n1 (stereo not drawn) [Compound 29] | 78 | – | – | 34 | 82 | – | 2.53 | 70 |
| Fc1ccc(-c2nn(C3CCCCO3)cc2-c2ncnc3[nH]ccc23)cc1 (stereo not drawn) [Compound 66] | – | – | – | 40 | 85 | – | 1.69 | – |
| N#Cc1cccc(-c2c(-c3ccncc3)cnn2C2CCCCO2)c1 (stereo not drawn) [Compound 60, 3-[4-(pyridin-4-yl)-1-(tetrahydro-2H-pyran-2-yl)-1H-pyrazol-5-yl]benzonitrile] | – | – | – | 92 | 100 | – | 1.23 | – |
| COCC(=O)Nc1cc(-c2cn(CC3CC3)nc2-c2ccc(F)cc2)ccn1 [Compound 223] | 90 | 99 | 97 | 96 | 100 | 2.61 | – | 91 |
| Fc1ccc(-c2nn(C3CCCCO3)cc2-c2ccnc3ccccc23)cc1 (stereo not drawn) [Compound 54] | – | 31 | 85 | 47 | 100 | – | 2.46 | – |
| COCC(=O)Nc1cc(-c2cn(CC3CC3(Cl)Cl)nc2-c2ccc(F)cc2)ccn1 (stereo not drawn) [Compound 245] | 94 | 95 | 99 | – | – | 3.22 | – | 88 |
| CCC(=O)Nc1cc(-c2cn(CCOC)nc2-c2ccc(F)cc2)ccn1 [Compound 153, N-{4-[3-(4-fluorophenyl)-1-(2-methoxyethyl)-1H-pyrazol-4-yl]pyridin-2-yl}propanamide] | 90 | 56 | 100 | 48 | 100 | – | 1.61 | – |
| CCOC(=O)Nc1cc(-c2cn(CC(C)C)nc2-c2ccc(F)cc2)ccn1 [Compound 267] | 95 | 59 | 97 | – | – | 3.11 | – | 98 |
| Cn1nc(-c2ccc(F)cc2O)c(-c2ccnc(NC(=O)C3CC3)c2)c1OC(F)F [Compound 258] | 95 | 79 | 98 | – | – | 2.22 | – | 80 |
| CCOCCn1cc(-c2ccnc(NC(=O)CC)c2)c(-c2ccc(F)cc2)n1 [Compound 326] | 95 | 107 | 100 | – | – | 2.01 | – | 94 |
| CCC(=O)Nc1cc(-c2c(-c3ccc(F)cc3O)nn(C)c2OC(F)F)ccn1 [Compound 196] | 100 | – | – | 25 | 100 | 2.12 | – | – |
| COCC(=O)Nc1cc(-c2cn(CC(F)F)nc2-c2ccc(F)cc2)ccn1 [Compound 216] | 95 | – | – | 97 | 100 | 2.27 | – | 89 |
| CCOCCn1cc(-c2ccnc(NC(=O)CC3CC3)c2)c(-c2ccc(F)cc2)n1 [Compound 329] | 95 | 104 | 100 | – | – | 2.48 | – | 94 |
| COCC(=O)Nc1cc(-c2c(-c3ccc(Cl)cc3F)nn(C)c2SC)ccn1 [Compound 200] | 93 | – | – | 1 | 99 | 3 | – | – |

| SMILES | pest or weed control at 500 ppm [1] [%] | inhibition at 50 µM [2, 6] [%] | inhibition at 50 µM [2, 7] [%] | inhibition at 50 µM [3, 8] [%] | inhibition at 50 µM [3, 9] [%] | chromatographic logP ([4]; LogPA) | chromatographic logP [4, 10] | pest or weed control at 500 ppm [5] [%] |
| --- | --- | --- | --- | --- | --- | --- | --- | --- |
| Clc1ccc(-c2c(-c3ccncc3)cnn2C2CCCCO2)cc1 (stereo not drawn) [Compound 70, 4-[5-(4-chlorophenyl)-1-(tetrahydro-2H-pyran-2-yl)-1H-pyrazol-4-yl]pyridine] | – | – | – | 0 | 92 | – | 1.52 | – |
| CC(C)n1cc(-c2ccnc(NC(=O)N(C)C)c2)c(-c2ccc(F)cc2)n1 [Compound 233] | 90 | 100 | 100 | – | – | 1.6 | – | 95 |
| CC(C)(C)n1cc(-c2ccncc2)c(-c2ccc(F)cc2)n1 [Compound 58] | – | – | – | 42 | 89 | – | 2.62 | – |
| CC(C)Cn1cc(-c2ccncc2-c2cccc(F)c2)c(-c2ccc(F)cc2)n1 [Compound 229] | 95 | 0 | 97 | – | – | 3.13 | – | 94 |
| CCC(=O)Nc1cc(-c2cn(C3CCN(C(=O)OC(C)(C)C)CC3)nc2-c2ccc(F)cc2)ccn1 [Compound 193] | 93 | – | – | 0 | 85 | 3.03 | – | – |
| CC(C)Cn1cc(-c2ccnc(NC(=O)Cc3ccccc3)c2)c(-c2ccc(F)cc2)n1 [Compound 191] | – | – | – | 1 | 96 | 3.54 | – | – |
| CC(C)C(=O)Nc1cc(-c2cn(C(C)c3ccccc3F)nc2-c2ccc(F)cc2)ccn1 (stereo not drawn) [Compound 232] | 95 | 0 | 80 | – | – | 3.41 | – | 93 |
| FC(F)(F)c1cccc(-c2nn(C3CCCCO3)cc2-c2ccnc3[nH]ccc23)c1 (stereo not drawn) [Compound 50] | – | – | – | 8 | 89 | – | 2.93 | – |
| O=C(CC1CC1)Nc1cc(-c2cn(C3CC3)nc2-c2ccc(F)cc2)ccn1 [Compound 323] | 95 | – | – | – | – | 2.48 | – | 86 |
| CC(C)Cn1cc(-c2ccnc(NC3COC3)n2)c(-c2ccc(F)cc2)n1 [Compound 279] | 70 | – | – | – | – | 2.35 | – | 100 |
| CC(C)Cn1cc(-c2ccnc(NC(C)(C)C)n2)c(-c2ccc(F)cc2)n1 [Compound 284] | 100 | – | – | – | – | 2.94 | – | 91 |
| CCC(=O)Nc1cc(-c2cn(C3CC3)nc2-c2ccc(F)cc2)ccn1 [Compound 320] | 95 | – | – | – | – | 1.97 | – | 94 |
| CCn1cc(-c2ccnc(NC(=O)[C@@H]3C[C@H]3c3ccccc3)c2)c(-c2ccc(F)cc2)n1 [Compound 337] | 95 | – | – | – | – | 3.06 | – | 88 |
| CC(C)C(=O)Nc1cc(-c2cn(C3CC3)nc2-c2ccc(F)cc2)ccn1 [Compound 322] | 95 | – | – | – | – | 2.32 | – | 95 |
| CCCn1cc(-c2ccnc(NC(=O)CC3CC3)c2)c(-c2ccc(F)cc2)n1 [Compound 295] | 100 | – | – | – | – | 2.66 | – | 94 |
| CCn1cc(-c2ccnc(NC(=O)CC3CCCC3)c2)c(-c2ccc(F)cc2)n1 [Compound 338] | 80 | – | – | – | – | 3.87 | – | 91 |
| CCC(=O)Nc1cc(-c2cn(OC(C)C)nc2-c2ccc(F)cc2)ccn1 [Compound 226] | 95 | 85 | 100 | – | – | 2.58 | – | 95 |
| c1ccc(Oc2ccc(-c3c(-c4ccncc4)cnn3C3CCCCO3)cc2)cc1 (stereo not drawn) [Compound 59, 4-[5-(4-phenoxyphenyl)-1-(tetrahydro-2H-pyran-2-yl)-1H-pyrazol-4-yl]pyridine] | – | – | – | 0 | 95 | – | 1.88 | – |
